Source: patent US20260132129A1 (Genesis Therapeutics, Inc., priority 2022, published 2026)

Target: T1, PI3Kα H1047R (T47D cells) (Homo sapiens, UniProt P42336, H1047R)
T1 construct: endogenous in cells; host or cells: T47D cells
Experiment: PI3Kα cellular assay: pAKT HTRF in T47D cells after EGF stimulation
Type: cell-based
Conditions: for IC50: T47D cells (PI3Kα H1047R), pAKT S473 HTRF
In short: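 pAKT read by HTRF in lysates of EGF-stimulated (20 ng/mL, 10 min) T47D H1047R cells. Before stimulation, serum-starved cells (16 h) received compound for 1 h at 37 °C, dosed from 10,000 nM down to 0.5 nM in 3-fold steps.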

[1] = 1 hr compound, 20 ng/ml EGF 10 min
[2] = selectivity T47D (H1047R) over SKBR3 (WT), pAKT HTRF
[3] = selectivity of T47D (H1047R) over SKBR3 (WT) pAKT IC50

T1 sequence (P42336 whole entry H1047R): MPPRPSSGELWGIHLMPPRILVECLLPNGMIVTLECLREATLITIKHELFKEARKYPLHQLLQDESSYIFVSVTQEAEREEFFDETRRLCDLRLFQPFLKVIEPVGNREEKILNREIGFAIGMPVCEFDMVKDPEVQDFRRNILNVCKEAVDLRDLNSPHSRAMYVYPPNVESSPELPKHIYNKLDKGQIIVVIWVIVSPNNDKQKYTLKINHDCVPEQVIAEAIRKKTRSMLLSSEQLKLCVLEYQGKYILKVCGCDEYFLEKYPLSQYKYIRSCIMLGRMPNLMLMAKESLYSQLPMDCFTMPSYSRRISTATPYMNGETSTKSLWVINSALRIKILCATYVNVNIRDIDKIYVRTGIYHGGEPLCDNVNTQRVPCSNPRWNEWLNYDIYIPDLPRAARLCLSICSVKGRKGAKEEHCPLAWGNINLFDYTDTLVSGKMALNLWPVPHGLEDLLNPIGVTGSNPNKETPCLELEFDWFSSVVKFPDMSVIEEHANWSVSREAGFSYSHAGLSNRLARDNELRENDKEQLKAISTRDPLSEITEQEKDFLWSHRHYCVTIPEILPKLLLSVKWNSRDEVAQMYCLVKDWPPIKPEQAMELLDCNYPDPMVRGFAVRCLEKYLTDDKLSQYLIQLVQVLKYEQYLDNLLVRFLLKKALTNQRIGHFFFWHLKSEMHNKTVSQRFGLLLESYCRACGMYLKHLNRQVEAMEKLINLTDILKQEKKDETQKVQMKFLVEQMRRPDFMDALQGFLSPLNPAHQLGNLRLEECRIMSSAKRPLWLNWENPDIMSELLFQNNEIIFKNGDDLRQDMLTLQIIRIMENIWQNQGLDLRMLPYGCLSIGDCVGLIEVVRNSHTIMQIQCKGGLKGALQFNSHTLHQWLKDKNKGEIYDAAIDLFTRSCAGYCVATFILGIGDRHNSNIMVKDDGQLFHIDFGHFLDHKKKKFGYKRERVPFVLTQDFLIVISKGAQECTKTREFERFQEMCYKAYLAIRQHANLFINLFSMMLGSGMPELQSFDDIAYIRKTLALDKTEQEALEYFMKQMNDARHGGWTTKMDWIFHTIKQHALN
T1 sequence (P27986 whole entry partner): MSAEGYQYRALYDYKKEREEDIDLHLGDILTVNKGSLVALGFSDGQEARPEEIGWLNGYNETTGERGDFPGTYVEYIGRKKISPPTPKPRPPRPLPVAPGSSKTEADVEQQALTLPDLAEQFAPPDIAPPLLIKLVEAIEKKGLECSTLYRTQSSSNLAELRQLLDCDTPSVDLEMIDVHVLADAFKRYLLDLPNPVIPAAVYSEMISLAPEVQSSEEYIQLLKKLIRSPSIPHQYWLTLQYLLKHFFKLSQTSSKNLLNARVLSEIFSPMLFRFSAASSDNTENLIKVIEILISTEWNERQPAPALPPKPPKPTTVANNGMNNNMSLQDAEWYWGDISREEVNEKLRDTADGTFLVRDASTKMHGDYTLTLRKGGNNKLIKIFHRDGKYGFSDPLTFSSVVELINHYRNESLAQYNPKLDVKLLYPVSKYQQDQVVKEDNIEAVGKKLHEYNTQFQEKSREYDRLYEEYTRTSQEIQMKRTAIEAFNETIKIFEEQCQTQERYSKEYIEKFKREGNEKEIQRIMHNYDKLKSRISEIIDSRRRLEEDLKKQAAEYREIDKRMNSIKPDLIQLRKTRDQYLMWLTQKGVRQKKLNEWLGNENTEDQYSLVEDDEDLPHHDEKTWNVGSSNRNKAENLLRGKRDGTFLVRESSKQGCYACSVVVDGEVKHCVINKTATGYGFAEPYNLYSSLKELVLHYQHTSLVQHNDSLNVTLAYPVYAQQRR

Structure (SMILES)	IC50 [1]	T47D pAKT S473 HTRF IC50 (H1047R): T47D (H1047R) selectivity over SKBR3 (WT) [2]	IC50 (EGF stimulation)	T47D pAKT S473 HTRF IC50 (H1047R): T47D (H1047R) selectivity over SKBR3 (WT) [3]
Cc1cc(C(C)Nc2ccccc2C(=O)O)c2nc(N3CCN(C(C)(C)C(N)=O)CC3)cc(=O)n2c1 (centres unmarked) [Compound 554]	> 2 µM	C (C denotes ≤5-fold)	–	–
Cc1cc(C(C)Nc2cc(C(F)(F)F)ccc2C(=O)O)c2nc(N3CCOCC3)c(C)c(=O)n2c1 (centres unmarked) [Compound 328]	> 2 µM	C (C denotes ≤5-fold)	–	–
Cc1cc([C@H](C)Nc2ccccc2C(=O)O)c2nc(-c3ccc4[nH]c(=O)[nH]c4c3)cc(=O)n2c1 [Compound 500]	> 2 µM	C (C denotes ≤5-fold)	–	–
Cc1cc(C(C)NC2CCN(S(=O)(=O)N(C)C)C2)c2nc(N3Cc4ccccc4C3)cc(=O)n2c1 (centres unmarked) [Compound 834]	–	–	> 2 µM	C (C denotes ≤5-fold)
Cc1cc(C(C)Nc2ccccc2C(=O)O)c2nc(N3C[C@H]4C[C@@H](C5CCN(S(=O)(=O)N(C)C)CC5)C[C@H]4C3)cc(=O)n2c1 (some centres unmarked) [Compound 844]	–	–	0.5 to 2 µM	B (B denotes 20-fold≥value>5-fold)
Cc1cc(C(C)Nc2ccccc2S(N)(=O)=O)c2nc(-c3cccc(C#N)c3)c(C)c(=O)n2c1 (centres unmarked) [Compound 1033]	–	–	0.1 to 0.5 µM	A (A denotes >20-fold)
Cc1cc(C(C)Nc2ccccc2-c2cc(O)no2)c2nc(-c3cccc(F)c3)c(C)c(=O)n2c1 (centres unmarked) [Compound 1367, 2-(3-fluorophenyl)-9-(1-((2-(3-hydroxyisoxazol-5-yl)phenyl)amino)ethyl)-3,7-dimethyl-4H-pyrido[1,2-a]pyrimidin-4-one]	–	A (A denotes >20-fold)	0.1 to 0.5 µM	–
Cc1cc(C(C)Nc2ccccc2C(=O)O)c2nc(N3C[C@@H](C)O[C@@H](C)C3)c(C)c(=O)n2c1 (some centres unmarked) [Compound 915]	–	–	0.1 to 0.5 µM	A (A denotes >20-fold)
Cc1cc(C(C)Nc2ccccc2C(=O)O)c2nc(-c3ccc(CN4CCN(C(=O)C5CC5)CC4)c(F)c3)cc(=O)n2c1 (single isomer, unassigned) [Compound 421]	> 2 µM	C (C denotes ≤5-fold)	–	–
Cc1cc([C@@H](C)Nc2ccccc2C(=O)O)c2nc(-c3ccncc3)c(C)c(=O)n2c1 [Compound 1004]	–	–	> 2 µM	C (C denotes ≤5-fold)
Cc1cc(C(C)Nc2ccccc2C(=O)O)c2nc(C3CCN(CC(N)=O)CC3)cc(=O)n2c1 (centres unmarked) [Compound 509]	> 2 µM	C (C denotes ≤5-fold)	–	–
Cc1cc([C@@H](C)Nc2ccccc2C(=O)NS(=O)(=O)N(C)C)c2nc(-c3cccc(F)c3)c(C)c(=O)n2c1 [Compound 1346]	–	C (C denotes ≤5-fold)	–	–
Cc1cc([C@H](C)Nc2ccccc2C(=O)O)c2nc(-c3ccc4c(c3)c(C(F)F)nn4C)cc(=O)n2c1 [Compound 808]	–	–	> 2 µM	C (C denotes ≤5-fold)
Cc1cc(C(C)Nc2ccccc2C(=O)O)c2nc(-c3ccc4[nH]c(=O)[nH]c4c3)cc(=O)n2c1 (centres unmarked) [Compound 514]	0.5 to 2 µM	B (B denotes 20-fold≥value>5-fold)	–	–
Cc1cc(C(C)Nc2ccccc2C(=O)O)c2nc(-c3ccc4c(c(N)nn4C)c3C)c(C)c(=O)n2c1 (centres unmarked) [Compound 720]	–	–	0.5 to 2 µM	B (B denotes 20-fold≥value>5-fold)
Cc1cc(C(C)Nc2ccccc2C(=O)O)c2nc(-n3cc(C(N)=O)c4ccccc43)cc(=O)n2c1 (centres unmarked) [Compound 771]	–	–	0.5 to 2 µM	B (B denotes 20-fold≥value>5-fold)

Structure (SMILES)	IC50 [1]	T47D pAKT S473 HTRF IC50 (H1047R): T47D (H1047R) selectivity over SKBR3 (WT) [2]	IC50 (EGF stimulation)	T47D pAKT S473 HTRF IC50 (H1047R): T47D (H1047R) selectivity over SKBR3 (WT) [3]
Cc1cc([C@@H](C)Nc2ccccc2C(=O)O)c2nc(-c3ccc4c(c3)c(C)cn4C)c(C)c(=O)n2c1 (single isomer, unassigned) [Compound 902]	–	–	< 0.1 µM	A (A denotes >20-fold)
Cc1cc([C@H](C)Nc2ccccc2C(=O)O)c2nc(Nc3ccc4[nH]c(=O)oc4c3)cc(=O)n2c1 [Compound 547]	> 2 µM	C (C denotes ≤5-fold)	–	–
Cc1cc([C@H](C)Nc2cccc(CO)c2C(=O)O)c2nc(-c3ccc4c(c3)c(C)nn4C)cc(=O)n2c1 [Compound 941]	–	–	> 2 µM	C (C denotes ≤5-fold)
Cc1cc(C(C)Nc2cccc3oc(=O)[nH]c23)c2nc(N3CCOCC3)cc(=O)n2c1 (centres unmarked) [Compound 918]	–	–	> 2 µM	C (C denotes ≤5-fold)
Cc1cc([C@H](C)Nc2ccccc2C(=O)O)c2nc(-c3ccc(-c4ccc5oc(=O)n(C)c5c4)c(C)c3)c(C)c(=O)n2c1 [Compound 1276]	–	C (C denotes ≤5-fold)	< 0.1 µM	–
Cc1cc([C@H](C)Nc2ccccc2-c2ccnnc2)c2nc([C@@H]3CCCOC3)c(C)c(=O)n2c1 [Compound 1407]	–	A (A denotes >20-fold)	< 0.1 µM	–
Cc1cc([C@H](C)Nc2ccccc2C(=O)O)c2nc(C3CCN(CC(N)=O)CC3)cc(=O)n2c1 [Compound 510]	> 2 µM	C (C denotes ≤5-fold)	–	–
Cc1cc([C@@H](C)Nc2ccccc2C(=O)O)c2nc(N3CC(Cl)C3)cc(=O)n2c1 [Compound 364]	< 0.1 µM	A (A denotes >20-fold)	–	–
CC(=O)c1ccc(-c2cc(=O)n3cc(C)cc([C@H](C)Nc4ccccc4C(=O)O)c3n2)cc1 [Compound 661]	–	–	> 2 µM	C (C denotes ≤5-fold)
Cc1cc(C(C)Nc2ccccc2C(=O)O)c2nc(-c3c(C)ccc4c3cnn4C)cc(=O)n2c1 (centres unmarked) [Compound 817]	–	–	> 2 µM	C (C denotes ≤5-fold)
CCC(=O)Nc1ccc(C(=O)O)c(NC(C)c2cc(C)cn3c(=O)cc(N4CCOCC4)nc23)c1 (centres unmarked) [Compound 791]	–	–	> 2 µM	C (C denotes ≤5-fold)
Cc1cc([C@@H](C)Nc2ccccc2C(=O)O)c2nc(-c3ccc4nc(CO)[nH]c4c3)cc(=O)n2c1 [Compound 488]	> 2 µM	C (C denotes ≤5-fold)	–	–
Cc1cc([C@@H](C)Nc2ccccc2C(=O)O)c2nc(-c3cc4c(N)nn(C)c4cc3C)c(C)c(=O)n2c1 [Compound 732]	–	–	–	C (C denotes ≤5-fold)
Cc1cc([C@@H](C)Nc2ccccc2C(=O)O)c2nc(-c3cc(C)c(F)c(C)c3)cc(=O)n2c1 [Compound 662]	–	–	0.1 to 0.5 µM	A (A denotes >20-fold)
Cc1cc([C@H](C)Nc2ccccc2C(=O)O)c2nc(-c3ccccc3)cc(=O)n2c1 [Compound 629]	< 0.1 µM	A (A denotes >20-fold)	–	–
Cc1cc([C@H](C)Nc2ccccc2C(=O)O)c2nc(N3CC(Cl)C3)cc(=O)n2c1 [Compound 365]	> 2 µM	C (C denotes ≤5-fold)	–	–
